Experimental findings from patent publication US8809581B2, “Method of making 6-aminocaproic acid as active pharmaceutical ingredient” (Sunny pharmtech Inc., priority 2012, dated 2014) are described below.

The data set in a line: water solubility. Conditions: in water (substance/water). In kind it is physicochemical.

The structures appear in SMILES notation.

One may read the solubility as the concentration that dissolves in the medium under given conditions. Low readings indicate a poorly soluble substance, high ones a readily soluble substance. In turn, `NCCCCCC(=O)O` [6-aminocaproic acid] had a solubility greater than 500 mg/mL.
